This note sets out measurements from PubChem BioAssay AID250 (DTP/NCI, 2004).

Molecules are shown by their SMILES. Where “and” joins values, the source holds several entries; their conditions need not be identical. Identical values can stand only once. Inconclusive results and toxic doses are left out.

This test concerns BDF1 mice, L1210 leukemia sc, survival T/C. Put plainly: NCI In Vivo Anticancer Drug Screen. Data for tumor model L1210 Leukemia (subcutaneous) in B6D2F1 (BDF1) mice. The settings on record: higher = longer survival. In a few lines: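 Transplantable tumor-bearing mice; survival or tumor size recorded; result = T/C, treated vs vehicle control.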
Where [1] appears, read: endpoint: median survival time, dose: 65.0 mg/kg/injection, schedule: Q01DX Z (sc), vehicle: saline.
Where [2] appears, read: endpoint: median survival time, dose: 39.0 mg/kg/injection, schedule: Q01DX Z (sc), vehicle: methylcellulose (MC).
Setting [3] is: endpoint: median survival time, dose: 65.0 mg/kg/injection, schedule: Q01DX Z (sc), vehicle: methylcellulose (MC).
Setting [4] is: endpoint: median survival time, dose: 108.0 mg/kg/injection, schedule: Q01DX Z (sc), vehicle: methylcellulose (MC).
Where [5] appears, read: endpoint: median survival time, dose: 180.0 mg/kg/injection, schedule: Q01DX Z (sc), vehicle: methylcellulose (MC).
Where [6] appears, read: endpoint: median survival time, dose: 300.0 mg/kg/injection, schedule: Q01DX Z (sc), vehicle: methylcellulose (MC).
Where [7] appears, read: endpoint: median survival time, dose: 500.0 mg/kg/injection, schedule: Q01DX Z (sc), vehicle: methylcellulose (MC).
Setting [8] is: endpoint: median survival time, dose: 1.8 mg/kg/injection, schedule: Q01DX Z (sc), vehicle: saline.
The mark [9] stands for this setting: endpoint: median survival time, dose: 3.0 mg/kg/injection, schedule: Q01DX Z (sc), vehicle: saline.
[10] abbreviates: endpoint: median survival time, dose: 5.0 mg/kg/injection, schedule: Q01DX Z (sc), vehicle: saline.
Setting [11] is: endpoint: median survival time, dose: 8.4 mg/kg/injection, schedule: Q01DX Z (sc), vehicle: saline.
Where [12] appears, read: endpoint: median survival time, dose: 14.0 mg/kg/injection, schedule: Q01DX Z (sc), vehicle: saline.
Setting [13] is: endpoint: median survival time, dose: 23.0 mg/kg/injection, schedule: Q01DX Z (sc), vehicle: saline.
Setting [14] is: endpoint: median survival time, dose: 39.0 mg/kg/injection, schedule: Q01DX Z (sc), vehicle: saline.
Where [15] appears, read: endpoint: median survival time, dose: 108.0 mg/kg/injection, schedule: Q01DX Z (sc), vehicle: saline.

With `c1ccc2[nH]cnc2c1`, the T/C reads like this: (endpoint: median survival time, dose: 14.0 mg/kg/injection, schedule: Q01DX Z (sc), vehicle: other) 100 % of control; (endpoint: median survival time, dose: 300.0 mg/kg/injection, schedule: Q01DX Z (sc), vehicle: other) 100 % of control; (endpoint: median survival time, dose: 500.0 mg/kg/injection, schedule: Q01DX Z (sc), vehicle: other) 100 % of control.
Regarding `O=C(O)c1cc(=O)[nH]c(=O)[nH]1`, the T/C was 100 % of control under setting [1]; 100 % of control (endpoint: median survival time, dose: 180.0 mg/kg/injection, schedule: Q01DX Z (sc), vehicle: saline); 100 % of control (endpoint: median survival time, dose: 300.0 mg/kg/injection, schedule: Q01DX Z (sc), vehicle: saline).
Turning to `CCC(=O)OCC1OC(n2cnc3c(=S)nc(N)[nH]c32)C(OC(=O)CC)C1OC(=O)CC` (stereo not drawn), the T/C is, setting by setting: (endpoint: median survival time, dose: 5.0 mg/kg/injection, schedule: Q01DX Z (sc), vehicle: carboxymethylcellulose (CMC)) 100 % of control; (endpoint: median survival time, dose: 14.0 mg/kg/injection, schedule: Q01DX Z (sc), vehicle: carboxymethylcellulose (CMC)) 109 % of control; (endpoint: median survival time, dose: 23.0 mg/kg/injection, schedule: Q01DX Z (sc), vehicle: carboxymethylcellulose (CMC)) 100 % of control.
For the compound `Nc1[nH]c(=O)nc2[nH]ncc12`, the T/C is 100 % of control (endpoint: median survival time, dose: 46.8 mg/kg/injection, schedule: Q01DX Z (sc), vehicle: methylcellulose (MC)); 100 % of control (endpoint: median survival time, dose: 78.0 mg/kg/injection, schedule: Q01DX Z (sc), vehicle: methylcellulose (MC)); 100 % of control (endpoint: median survival time, dose: 130.0 mg/kg/injection, schedule: Q01DX Z (sc), vehicle: methylcellulose (MC)); 108 % of control (endpoint: median survival time, dose: 216.0 mg/kg/injection, schedule: Q01DX Z (sc), vehicle: methylcellulose (MC)); 104 % of control (endpoint: median survival time, dose: 360.0 mg/kg/injection, schedule: Q01DX Z (sc), vehicle: methylcellulose (MC)); 100 % of control (endpoint: median survival time, dose: 600.0 mg/kg/injection, schedule: Q01DX Z (sc), vehicle: methylcellulose (MC)).
As to `Nc1nc(N)c2cc(CNc3ccc(C(=O)NC(CC(=O)O)C(=O)O)cc3)ccc2n1` (stereo not drawn), the T/C is, setting by setting: (endpoint: median survival time, dose: 0.78 mg/kg/injection, schedule: Q01DX Z (sc), vehicle: saline) 216 % of control; (endpoint: median survival time, dose: 1.56 mg/kg/injection, schedule: Q01DX Z (sc), vehicle: saline) 200 % of control; (endpoint: median survival time, dose: 3.12 mg/kg/injection, schedule: Q01DX Z (sc), vehicle: saline) 150 % of control; (endpoint: median survival time, dose: 6.25 mg/kg/injection, schedule: Q01DX Z (sc), vehicle: saline) 122 % of control; (endpoint: median survival time, dose: 6.3 mg/kg/injection, schedule: Q01DX001 (sc), vehicle: saline) 122 % of control; (endpoint: median survival time, dose: 12.5 mg/kg/injection, schedule: Q01DX001 (sc), vehicle: saline) 116 % of control. Further, the T/C reads like this: (endpoint: median survival time, dose: 12.5 mg/kg/injection, schedule: Q01DX Z (sc), vehicle: saline) 111 % of control; (endpoint: median survival time, dose: 25.0 mg/kg/injection, schedule: Q01DX Z (sc), vehicle: saline) 100 % of control; (endpoint: median survival time, dose: 50.0 mg/kg/injection, schedule: Q01DX001 (sc), vehicle: saline) 166 % of control.
For the compound `C=C(C)c1ccc(/C=N/NC(N)=S)cc1`, the T/C is 109 % of control under setting [2]; 109 % of control under setting [3]; 109 % of control under setting [4]; 109 % of control under setting [5]; 113 % of control under setting [6]; 109 % of control under setting [7].
Turning to `C[n+]1c2ccccc2nc2c(N)cc(N)cc21`, the T/C is 100 % of control under setting [8]; 100 % of control under setting [9]; 100 % of control under setting [10]; 100 % of control under setting [11]; 100 % of control under setting [12]; 105 % of control (endpoint: median survival time, dose: 23.0 mg/kg/injection, schedule: Q01DX Z (sc), vehicle: methylcellulose (MC)). Besides, the T/C runs as follows: under setting [13], 111 % of control; under setting [2], 105 % of control; under setting [14], 111 % of control; under setting [3], 105 % of control.
On to `CCOC(=O)C(N)Cc1ccc(N(CCCl)CCCl)cc1` (stereo not drawn), for which the T/C under setting [13] was 110 % of control and 119 % of control; the T/C under setting [14] was 104 % of control and 110 % of control; the T/C under setting [1] is 100 % of control and 104 % of control; the T/C under setting [15] is 90 % of control.
Consider `OCC1OC(n2cnc3c(Cl)ncnc32)C(O)C1O` (stereo not drawn), for which the T/C is 100 % of control under setting [2]; 100 % of control under setting [3]; 100 % of control under setting [4]; 100 % of control under setting [5]; 95 % of control and 100 % of control under setting [6]; 94 % of control and 105 % of control under setting [7]. Also, the T/C (endpoint: median survival time, dose: 833.0 mg/kg/injection, schedule: Q01DX Z (sc), vehicle: methylcellulose (MC)) is 105 % of control.
Regarding `COC12C(COC(N)=O)C3=C(C(=O)C(C)=C(N)C3=O)N1CC1C2N1C` (stereo not drawn), the T/C under setting [8] was 100 % of control; the T/C (endpoint: median survival time, dose: 2.0 mg/kg/injection, schedule: Q01DX009 (ip), vehicle: saline) is 101 % of control; the T/C (endpoint: median survival time, dose: 2.0 mg/kg/injection, schedule: Q01DX009 (sc), vehicle: saline) is 103 % of control and 106 % of control; the T/C under setting [9] is 100 % of control; the T/C (endpoint: median survival time, dose: 4.0 mg/kg/injection, schedule: Q01DX009 (ip), vehicle: saline) is 106 % of control; the T/C (endpoint: median survival time, dose: 4.0 mg/kg/injection, schedule: Q01DX009 (sc), vehicle: saline) is 104 % of control and 105 % of control. The T/C is, setting by setting: under setting [10], 100 % of control; (endpoint: median survival time, dose: 8.0 mg/kg/injection, schedule: Q01DX009 (ip), vehicle: saline) 116 % of control; (endpoint: median survival time, dose: 8.0 mg/kg/injection, schedule: Q01DX009 (sc), vehicle: saline) 107 % of control and 112 % of control; under setting [11], 100 % of control; (endpoint: median survival time, dose: 16.0 mg/kg/injection, schedule: Q01DX009 (sc), vehicle: saline) 116 % of control; (endpoint: median survival time, dose: 32.0 mg/kg/injection, schedule: Q01DX009 (sc), vehicle: saline) 92 % of control and 117 % of control.
As for `COc1cc(NS(C)(=O)=O)ccc1Nc1c2ccccc2nc2ccccc12`, the T/C was 97 % of control (endpoint: mean survival time, dose: 0.75 mg/kg/injection, schedule: Q01DX009 (ip), vehicle: saline); 100 % of control (endpoint: mean survival time, dose: 1.25 mg/kg/injection, schedule: Q01DX009 (ip), vehicle: saline); 99 % of control (endpoint: mean survival time, dose: 1.5 mg/kg/injection, schedule: Q01DX009 (ip), vehicle: saline); 104 % of control (endpoint: mean survival time, dose: 2.5 mg/kg/injection, schedule: Q01DX009 (ip), vehicle: saline); 110 % of control (endpoint: mean survival time, dose: 3.0 mg/kg/injection, schedule: Q01DX009 (ip), vehicle: saline); 103 % of control and 112 % of control (endpoint: mean survival time, dose: 5.0 mg/kg/injection, schedule: Q01DX009 (ip), vehicle: saline). Also, the T/C is 110 % of control (endpoint: mean survival time, dose: 6.0 mg/kg/injection, schedule: Q01DX009 (ip), vehicle: saline); 100 % of control (endpoint: mean survival time, dose: 10.0 mg/kg/injection, schedule: Q01DX009 (ip), vehicle: saline); 103 % of control (endpoint: median survival time, dose: 0.5 mg/kg/injection, schedule: Q01DX009 (ip), vehicle: other); 102 % of control (endpoint: median survival time, dose: 1.0 mg/kg/injection, schedule: Q01DX009 (ip), vehicle: other); 103 % of control (endpoint: median survival time, dose: 2.0 mg/kg/injection, schedule: Q01DX009 (ip), vehicle: other); 118 % of control (endpoint: median survival time, dose: 4.0 mg/kg/injection, schedule: Q01DX009 (ip), vehicle: other).
Turning to `CCCOC1=C(N2CC2)C(=O)C(OCCC)=C(N2CC2)C1=O`, the T/C by setting is: under setting [11], 110 % of control; under setting [12], 110 % of control; under setting [15], 115 % of control.
